Assay results published in US7473682B2, “Angiogenic peptides and uses thereof” (Ramot at Tel Aviv University Ltd., priority 2003, dated 2009).

Columns and labels:
[1] = system: mouse ischemic hind limb; test: Mouse ischemic hind limb model, physiological observations (ladder climbing); format: in vivo; design: key: 1 = walk and climb ... 4 = walk with difficulty, cannot climb; conditions: mean score of 10 mice, 10 μg
Protocol: (§1) Mouse ischemic hind limb model—Ischemia was created in the mouse left hind limb by ligation of the femoral artery. The right hind limb served as control. A day after the operation each of the peptides was injected into one site close to the ligation and one site distal to the ligation. Each mouse was treated with each of the peptides in a total amount of 10 μg.
Physiological observations—Ischemic mice were evaluated for their ability to climb a ladder on day 1, 4, 7, and 10-post operation. The scoring system was as follows: 1—walk and climb; 2—walk and climb with some difficulty, 3—walk and cannot climb the ladder; 4—walk with difficulties and cannot climb the ladder.

[2] = system: mouse ischemic hind limb; test: Mouse ischemic hind limb model, blood perfusion (Laser Doppler Imager); format: in vivo; conditions: 14 and 19 days following peptide injection, 10 μg
Protocol: as §1
Blood perfusion in ischemic mice—The percent of blood perfusion was measured using a Laser Doppler Imager (PeriMed, Sweden) at 14 and 19 days after peptides injections. The average percent perfusion of each limb was computed and expressed as the ischemic (left)/control (right) blood perfusion ratio.

[3] = system: ears of nude mice and Balb/C mice; test: In vivo angiogenesis in a mouse-ear model; conditions: for Number of blood vessels: 5 days after inoculation
Protocol: In Wivo angiogenesis in a mouse-ear model—Ear angiogenesis studies were a modification of an approach described previously (Pettersson, 2000). […] Contralateral ears were injected only with PBS. […] Two days after peptide inoculation, angiogenic effect of peptides could be observed.
Histological sections—Histological sections of the mouse-ears injected with the angiogenic peptides were performed by fixing tissues in 4% buffered formalin. Sections were embedded in paraffin blocks sectioned in 4 μm thick layers and stained with hematoxolin-eosin.

Substance	Physiological score (ability to climb a ladder) Day 1 ([1]; 1 = walk and climb ... 4 = walk with difficulties and cannot climb, day 1 post operation)	Physiological score (ability to climb a ladder) Day 4 ([1]; scale 1-4, day 4 post operation)	Physiological score (ability to climb a ladder) Day 7 ([1]; scale 1-4, day 7 post operation)	Physiological score (ability to climb a ladder) Day 10 ([1]; scale 1-4, day 10 post operation)	The blood perfusion ratio (in percentages) of the ischemic vs. control limbs, Mean [2] [percentages]	Number of blood vessels ([3]; 3 ng/ear)	Peptide/PBS = ratio between the No. of blood vessels in the peptide-injected ear and in the PBS-injected ear ([3]; mouse ears, contralateral ear PBS)	Number of blood vessels ([3]; 10 ng/ear)	Number of blood vessels in the ears of injected mice (photographs) ([3]; VEGF, 100 ng/mouse ear (FIG. 19a))
FGF: positive control, the angiogenic molecule FGF [reference compound]	2.57	2	1	1	93.438	11	2.08	–	–
VEGF [reference compound]	–	–	–	–	–	–	–	17	increased number of blood vessels
